Measured values taken from patent publication US9605005B2, “Alkynyl alcohols and methods of use” (Genentech, Inc., priority 2013, dated 2017).

Tests used:
[1] = target: nuclear factor-kappa B (NF-kB)-inducing kinase (NIK) (Homo sapiens (Human), UniProt Q99558); experiment: NIK enzyme inhibition assay (Transcreener ADP, NIK ADP-FP); type: biochemical; details: purified NIK 0.5 nM, 10 μM ATP, fluorescence polarization; read-out: NIK ADP-FP (Ki μM)
[2] = tested on: REL-A (p65) nuclear translocation, HeLa cells; experiment: REL-A (p65) nuclear translocation assay in HeLa cells (classical NF-kB signaling, TNF-α stimulated); type: cell-based; details: Homo sapiens, 0.5 h; HeLa cells, 10 ng/mL TNF-α for 30 minutes; read-out: REL-A HeLa Transloc Assay (IC50)
Protocol: (§1) Several assays were developed to profile the cellular activities of NIK inhibitors.
(§2) (2) A second set of cell assay are used to define the selectivity of NIK inhibitors toward inhibition of classical vs. non-classical NF-kB signaling and rely on quantification of the nuclear translocation of p52 (NF-kB2) and REL-A (p65) using high content cellular imaging. For the p52 (non-classical NF-kB signaling) nuclear translocation assay, HeLa cells are treated with different concentrations of compounds (0.2% DMSO final) in medium containing 10% fetal bovine serum and then stimulated with 100 ng/mL of an anti-lymphotoxin beta receptor antibody (R&D Systems) for 5 hours. In the REL-A nuclear translocation assay, HeLa cells are incubated with compounds (0.2% DMSO final) for 4.5 hours in medium containing 10% fetal bovine serum before stimulating them with 10 ng/mL tumor necrosis factor (TNF)-α (R&D Systems) for 30 minutes. Cells are fixed with 4% paraformaldehyde, permeabilized by adding 0.1% Triton X-100 in phosphate buffered saline, and then are incubated with either 2 ug/mL anti-p52 antibody (Millipore) or 400 ng/mL anti-REL-A (p65) antibody (Santa Cruz Biotechnology). Finally, the cells are incubated with an Alexa488-labeled secondary antibody (Invitrogen) and DRAQ5 DNA stain (Biostatus). Imaging is carried out using an Opera reader (Perkin Elmer) and data are analyzed with the aid of Acapella software (Perkin Elmer). The p52 or REL-Atranslocation into the nucleus is quantified by the ratio of the nuclear to cytoplasmic signal intensity. […] The compounds in listed in Table 1 have the corresponding inhibitory value (IC50 in micromolar) for NIK p52 Translocation Assay as set forth in Table 2.
(§3) The compounds in listed in Table 1 have the corresponding inhibitory values (IC50 in micromolar) for the Translocation Assays as set forth in Table 2.

[3] = tested on: p52 (NF-kB2) nuclear translocation, HeLa cells; experiment: p52 (NF-kB2) nuclear translocation assay in HeLa cells (non-classical NF-kB signaling, anti-lymphotoxin beta receptor antibody stimulated); type: cell-based; details: Homo sapiens, 100 ng/mL anti-lymphotoxin beta receptor antibody for 5 hours, read-out: p52 HeLa Transloc Assay (IC50)
Protocol: as §1, §2, §3

nuclear factor-kappa B (NF-kB)-inducing kinase (NIK), sequence (Q99558 whole entry): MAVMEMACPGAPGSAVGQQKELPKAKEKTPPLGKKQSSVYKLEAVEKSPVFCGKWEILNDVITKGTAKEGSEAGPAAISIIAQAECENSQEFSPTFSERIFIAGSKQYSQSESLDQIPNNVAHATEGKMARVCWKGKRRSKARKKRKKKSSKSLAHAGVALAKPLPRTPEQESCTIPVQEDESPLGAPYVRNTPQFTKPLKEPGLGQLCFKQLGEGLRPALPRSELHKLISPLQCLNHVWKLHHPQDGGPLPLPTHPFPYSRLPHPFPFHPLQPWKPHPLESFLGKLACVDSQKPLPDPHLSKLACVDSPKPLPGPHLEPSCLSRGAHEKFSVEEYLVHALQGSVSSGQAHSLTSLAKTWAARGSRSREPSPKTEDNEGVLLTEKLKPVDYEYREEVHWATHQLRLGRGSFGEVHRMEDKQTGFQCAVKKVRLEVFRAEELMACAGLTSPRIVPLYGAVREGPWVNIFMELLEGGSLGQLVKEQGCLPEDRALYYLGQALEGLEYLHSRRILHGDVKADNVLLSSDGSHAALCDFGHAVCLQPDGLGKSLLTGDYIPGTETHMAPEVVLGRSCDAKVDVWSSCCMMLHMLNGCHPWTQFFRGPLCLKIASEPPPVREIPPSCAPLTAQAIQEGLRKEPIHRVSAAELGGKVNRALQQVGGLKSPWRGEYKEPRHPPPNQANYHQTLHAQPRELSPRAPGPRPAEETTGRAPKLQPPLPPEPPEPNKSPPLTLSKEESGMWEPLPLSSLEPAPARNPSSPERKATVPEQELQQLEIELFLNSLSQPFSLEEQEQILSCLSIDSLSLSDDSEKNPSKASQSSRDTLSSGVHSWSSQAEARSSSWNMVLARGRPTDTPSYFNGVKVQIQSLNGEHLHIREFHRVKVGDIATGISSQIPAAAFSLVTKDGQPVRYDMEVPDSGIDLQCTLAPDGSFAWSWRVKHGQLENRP

Compound	Ki [1] [nM]	IC50 [2] [nM]	IC50 [3] [nM]
CN1CC[C@@](O)(C#Cc2cccc(-n3nc(C(N)=O)c4cc(C#N)ccc43)c2)C1=O [Compound 42, 5-cyano-1-[3-[2-[(3R)-3-hy-droxy-1-methyl-2-oxo-pyrroli-din-3-yl]ethynyl]phenyl] indazole-3-carboxamide]	0.64	20000	392
CN1CC[C@@](O)(C#Cc2ccnc(-n3nc(C(N)=O)c4ccc(F)cc43)c2)C1=O [Compound 63, 6-fluoro-1-[4-[2-[(3R)-3-hy-droxy-1-methyl-2-oxo-pyrroli-din-3-yl]ethynyl]-2-pyri-dyl]indazole-3-carboxamide]	0.1	2000	27
CN1CC[C@@](O)(C#Cc2cccc(-c3csc(C(N)=O)n3)c2)C1=O [Compound 89, 4-[3-[2-[(3R)-3-hydroxy-1-methyl-2-oxo-pyrrolidin-3-yl]ethynyl]phenyl]thiazole-2-carboxamide]	1.65	> 20000	226
CN1CC[C@@](O)(C#Cc2cccc(-n3nc(C(N)=O)c4c(Cl)cccc43)c2)C1=O [Compound 39, 4-chloro-1-[3-[2-[(3R)-3-hydroxy-1-methyl-2-oxo-pyrroli-din-3-yl]ethynyl]phenyl] indazole-3-carboxamide]	1.21	20000	108
COc1cc2c(cn1)c(C(N)=O)nn2-c1cccc(C#C[C@]2(O)CCN(C)C2=O)c1 [Compound 140, 1-[3-[2-[(3R)-3-hydroxy-1-methyl-2-oxo-pyrrolidin-3-yl]ethynyl]phenyl]-6-methoxy-pyrazolo[4,3-c]pyridine-3-carboxamide]	0.05	8000	38.2
Cc1nnc([C@](C)(O)C#Cc2cccc(-n3nc(C(N)=O)c4ccccc43)c2)o1 [Compound 26, 1-[3-[(3R)-3-hydroxy-3-(5-methyl-1,3,4-oxadiazol-2-yl)but-1-ynyl]phenyl]indazole-3-carboxamide]	2.52	20000	1130
CN1CC[C@@](O)(C#Cc2cccc(-n3nc(C(N)=O)c4c3CCC4)c2)C1=O [Compound 119, 1-[3-[2-[(3R)-3-hydroxy-1-methyl-2-oxo-pyrrolidin-3-yl]ethynyl]phenyl]-5,6-dihydro-4H-cyclopenta[c]pyrazole-3-carboxamide]	0.43	20000	45.8
CN1CC[C@@](O)(C#Cc2cccc(-n3nc(C(N)=O)c4cnc(C(F)(F)F)nc43)c2)C1=O [Compound 159, 1-[3-[2-[(3R)-3-hydroxy-1-methyl-2-oxo-pyrrolidin-3-yl]ethynyl]phenyl]-6-(trifluoro-methyl)pyrazolo[3,4-d] pyrimidine-3-carboxamide]	7.13	2000	2000
CN1CC[C@@](O)(C#Cc2ccnc(-n3nc(C(N)=O)c4cc(Br)ccc43)c2)C1=O [Compound 66, 5-bromo-1-[4-[2-[(3R)-3-hy-droxy-1-methyl-2-oxo-pyrroli-din-3-yl]ethynyl]-2-pyri-dyl]indazole-3-carboxamide]	0.15	20000	55
COc1ncc2c(C(N)=O)nn(-c3cccc(C#C[C@]4(O)CCN(C)C4=O)c3)c2n1 [Compound 160, 1-[3-[2-[(3R)-3-hydroxy-1-methyl-2-oxo-pyrrolidin-3-yl]ethynyl]phenyl]-6-methoxy-pyrazolo[3,4-d]pyrimidine-3-carboxamide]	0.13	20000	66.8
CN1CC[C@@](O)(C#Cc2cccc(-n3nc(C(N)=O)c4ccnnc43)c2)C1=O [Compound 174, 1-[3-[2-[(3R)-3-hydroxy-1-methyl-2-oxo-pyrrolidin-3-yl]ethynyl]phenyl]pyrazolo [3,4-c]pyridazine-3-carbox-amide]	0.13	2000	2000
CN1CC[C@@](O)(C#Cc2cccc(-n3nc(C(N)=O)c4c3CCN(C(=O)OC(C)(C)C)C4)c2)C1=O [Compound 16, tert-butyl 3-carbamoyl-1-[3-[2-[(3R)-3-hydroxy-1-methyl-2-oxo-pyrrolidin-3-yl]ethynyl]phe-nyl]-6,7-dihydro-4H-pyrazolo [4,3-c]pyridine-5-carboxylate]	0.9	20000	125
CN1CC[C@@](O)(C#Cc2cccc(-n3nc(C(N)=O)c4ccncc43)c2)C1=O [Compound 148, 1-[3-[2-[(3R)-3-hydroxy-1-methyl-2-oxo-pyrrolidin-3-yl]ethynyl]phenyl]pyrazolo [3,4-c]pyridine-3-carboxamide]	0.38	20000	110
COc1ccc2c(C(N)=O)nn(-c3cccc(C#C[C@]4(O)CCN(C)C4=O)c3)c2n1 [Compound 154, 1-[3-[2-[(3R)-3-hydroxy-1-methyl-2-oxo-pyrrolidin-3-yl]ethynyl]phenyl]-6-methoxy-pyrazolo[3,4-b]pyridine-3-carboxamide]	0.05	2000	33.9
CN1CC[C@@](O)(C#Cc2cccc(-n3nc(C(N)=O)c4c3CCCN4)c2)C1=O [Compound 151, 1-[3-[2-[(3R)-3-hydroxy-1-methyl-2-oxo-pyrrolidin-3-yl]ethynyl]phenyl]-4,5,6,7-tetra-hydropyrazolo[4,3-b]pyri-dine-3-carboxamide]	3.96	2000	1030
COc1ccn2c(C(N)=O)nc(-c3cccc(C#C[C@]4(O)CCN(C)C4=O)c3)c2c1 [Compound 97, 1-[3-[2-[(3R)-3-hydroxy-1-methyl-2-oxo-pyrrolidin-3-yl]ethynyl]phenyl]-7-methoxy-imidazo[1,5-a]pyridine-3-carboxamide]	0.05	1000	6.6
CC1Cc2c(C(N)=O)nn(-c3cccc(C#C[C@]4(O)CCN(C)C4=O)c3)c2C1 (stereo partly drawn) [Compound 188, 1-[3-[2-[(3R)-3-hydroxy-1-methyl-2-oxo-pyrrolidin-3-yl]ethynyl]phenyl]-5-methyl-5,6-dihydro-4H-cyclopenta [c]pyrazole-3-carboxamide]	0.85	> 2000	205
CN1CC[C@@](O)(C#Cc2cccc(-n3nc(C(N)=O)c4cc(OCCN5CCC5)ccc43)c2)C1=O [Compound 161, 5-[2-(azetidin-1-yl)ethoxy]-1-[3-[2-[(3R)-3-hydroxy-1-methyl-2-oxo-pyrrolidin-3-yl]ethynyl]phenyl]indazole-3-carboxamide]	2.52	2000	770
Cc1nnc([C@](C)(O)C#Cc2cccc(-n3nc(C(N)=O)c4cccnc43)c2)o1 [Compound 67, 1-[3-[(3R)-3-hydroxy-3-(5-methyl-1,3,4-oxadiazol-2-yl)but-1-ynyl]phenyl]pyrazo-lo[3,4-b]pyridine-3-carbox-amide]	3.14	20000	893
CCOC(=O)N1CCc2c(c(C(N)=O)nn2-c2cc(C#C[C@]3(O)CCN(C)C3=O)ccn2)C1 [Compound 165, ethyl 3-carbamoyl-1-[4-[2-[(3R)-3-hydroxy-1-methyl-2-oxo-pyrrolidin-3-yl]ethynyl]-2-pyridyl]-6,7-dihydro-4H-pyra-zolo[4,3-c]pyridine-5-car-boxylate]	0.23	20000	274
